Source: patent US20070213396A1, “Active Substance Combinations Having Insecticidal Properties” (BAYER CROPSCIENCE AG, priority 2004, published 2007)
“And” between values parts separate entries of the source, which are not always exact repeats. Identical values can stand only once.

Legend:
Assay type in all cases: in vivo
Conditions in all cases: single active compound
[1] = test system: caterpillars of the cotton bollworm (Heliothis armigera); test: Heliothis armigera test (cabbage leaf dip)
Description: (§1) The expected action for a given combination of two active compounds can be calculated as follows, according to S. R. Colby, Weeds 15 (1967), 20-22: • If • X is the kill rate, expressed as a percentage of the untreated control, when employing active compound A at an application rate of m g/ha or in a concentration of m ppm, • Y is the kill rate, expressed as a percentage of the untreated control, when employing active compound B at an application rate of n g/ha or in a concentration of n ppm and • E is the kill rate, expressed as a percentage of the untreated control, when employing active compounds A and B at application rates of m and n g/ha or in a concentration of m and n ppm, • then [formula] If the actual insecticidal kill rate exceeds the calculated value, the kill of the combination is superadditive, i.e. a synergistic effect is present. In this case, the actually observed kill rate must exceed the value calculated using the above formula for the expected kill rate (E).
(§2) To produce a suitable preparation of active compound, 1 part by weight of active compound is mixed with the stated amounts of solvent and emulsifier, and the concentrate is diluted with emulsifier-containing water to the desired concentration.
Cabbage leaves (Brassica oleracea) are treated by being dipped into the preparation of active compound of the desired concentration and are populated with caterpillars of the cotton bollworm (Heliothis armigera) while the leaves are still moist.
(§3) After the desired period of time, the kill in % is determined. 100% means that all caterpillars have been killed; 0% means that none of the caterpillars have been killed. The determined kill rates are entered into Colby's formula (see sheet 1).

[2] = test system: Phaedon cochleariae larvae; test: Phaedon cochleariae larvae test (cabbage leaf dip)
Description: as §1
phaedon cochlearise Larvae Teast
as §2
Cabbage leaves (Brassica oleracea) are treated by being dipped into the preparation of active compound of the desired concentration and are populated with […] (Phaedon cochleariae) while the leaves are still moist.
as §3

[3] = test system: caterpillars of the beet armyworm (Spodoptera exigua); test: Spodoptera exigua test (cabbage leaf dip)
Description: as §1
The produce a suitable preparation of active compound, 1 part by weight of active compound is mixed with the stated amounds of solvent and emulsifier, and the concentrate is diluted with emulsifier-containing water to the desired concentration. […]
After the desired period of time, the kill in % is determined. […] The determined kill rates are entered into Colby's formula (see sheet 1)

CC1(C)[C@H](C(=O)O[C@H](C#N)c2cccc(Oc3ccccc3)c2)[C@@H]1C=C(Br)Br [deltamethrin]
Kill in % after 3 d ([1]; 0.032 ppm): 10%
Kill in % after 6 d ([2]; 0.16 ppm): 50%

CC1(C)C(/C=C(\Cl)C(F)(F)F)C1C(=O)OC(C#N)c1cccc(Oc2ccccc2)c1 (stereo not drawn) [lambda-cyhalothrin]
Kill in % after 3 d ([2]; 0.16 ppm): 15%

CC1(C)C(C=C(Cl)Cl)C1C(=O)OCc1cccc(Oc2ccccc2)c1 (stereo not drawn) [permethrin]
Kill in % after 6 d ([1]; 0.16 ppm): 15%
Kill in % after 6 d ([3]; 0.16 ppm): 0%

O=C(NC(=O)c1ccccc1Cl)Nc1ccc(OC(F)(F)F)cc1 [triflumuron]
Kill in % after 3 d ([1]; 0.8 ppm): 0%
Kill in % after 6 d ([1]; 4 ppm): 0%
Kill in % after 3 d ([2]; 4 ppm): 25% and 35%
Kill in % after 6 d ([2]; 4 ppm): 65%
Kill in % after 6 d ([3]; 4 ppm): 20%

CC1(C)C(C=C(Cl)Cl)C1C(=O)OC(C#N)c1ccc(F)c(Oc2ccccc2)c1 (stereo not drawn) [β-cyfluthrin]
Kill in % after 6 d ([1]; 0.16 ppm): 65%
Kill in % after 3 d ([2]; 0.16 ppm): 15%
